Legend:
[1] = target: LIMK2 (Homo sapiens, UniProt P53671); assay: Western blot of endogenous LIMK2 in HuCCT1 cells; assay type: cell-based
Protocol: HuCCT1 cell line was cultured in Roswell Park Memorial Institute (RPMI) 1640 medium supplemented with GlutaMAX, 10% fetal bovine serum (FBS), and 1% penicillin/streptomycin. The cell line was maintained in an incubator with 5% CO2 at 37 °C. For the treatment, 3 × 10^5 cells were plated and treated with the compounds and DMSO as the control for 6 h. The cells were then lysed using RIPA buffer (50 mM Tris-HCl pH 7.4, 150 mM NaCl, 1% Triton X-100, 1% NaDOC, 0.1% SDS, 1 mM EDTA), freshly supplemented with protease and phosphatase inhibitor cocktails (Sigma-Aldrich, Darmstadt, Germany). After 1 h incubation on ice, the lysates were centrifuged for 30 min at […], and the protein-containing supernatant was collected. The protein concentrations were determined using Protein Assay Dye Reagent Concentrate (Bradford, Bio-Rad, Hercules, CA, USA) and Pre-Diluted Protein Assay Standards: Bovine Serum Albumin (BSA) Set (Thermo Fisher Scientific, Darmstadt, Germany). Then, equal amounts of protein was mixed with Roti-Load 1 dye (Carl Roth, Karlsruhe, Germany) and 4x Laemmli Buffer (Bio-Rad, Hercules, CA, USA), denatured at 95 °C, and run on NuPAGE 4–12% bis-Tris gels (Thermo Fisher Scientific). Proteins were blotted on methanol-activated PVDF Transfer Membranes (Thermo Fisher Scientific) using the wet transfer method with the transfer buffer (Thermo Fisher Scientific) and 20% methanol. Afterward, the membranes were blocked with 5% milk or 3% BSA in 0.1% TBS-T for 1 h at RT and incubated overnight at 4 °C with primary antibodies: GAPDH (catalog no. 2118, Cell Signaling Technology, MA, USA, 1:1000 dilution), LIMK1 (catalog no. 3842, Cell Signaling Technology, 1:1000 dilution), LIMK2 (catalog no. 3845, 1:500 dilution), phospho-Cofilin (catalog no. 3313, Cell Signaling Technology, 1:1000 dilution), Cofilin (catalog no. 5175, Cell Signaling Technology, 1:1000 dilution). Then, the membranes were washed with 0.1% TBS-T and incubated with secondary horseradish-peroxidase (HRP)-conjugated antibody for 2 h (catalog no. 7074, Cell Signaling Technology, 1:3000 dilution). The membranes were washed again with 0.1% TBS-T before they were developed using X-ray films (Fujifilm, Dusseldorf, Germany).

[2] = Microsomal stability assay; assay type: in vitro ADME; settings: rat liver microsomes
Protocol: The solubilized test compound (5 μL, final concentration 10 μM) was preincubated at 37 °C in 432 μL of 0.1 M phosphate buffer (pH 7.4) together with 50 μL of an NADPH-regenerating system containing 30 mM glucose-6-phosphate, 4 U/mL glucose-6-phosphate dehydrogenase, 10 mM NADP, and 30 mM MgCl2. After 5 min, the reaction was initiated by adding 13 μL of rat liver microsomes (Sprague–Dawley, Invitrogen; 20 mg mL^–1 protein in 0.1 M phosphate buffer) and incubated in a shaking water bath at 37 °C. The reaction was quenched at 0, 15, 30, and 60 min by adding 500 μL of ice-cold methanol. Samples were centrifuged at 5,000 × g for 5 min at 4 °C, and the supernatants were analyzed by HPLC to quantify the remaining parent compound. HPLC conditions were as follows: mobile phase composed of methanol (40–90%) and water with 0.1% formic acid (10–60%), optimized for the test compound; flow rate 1 mL/min; stationary phase Purospher STAR RP-18 column (5 μm, 125 × 4 mm) with a guard column (5 μm, 4 × 4 mm); detection wavelengths at 254 and 280 nm; injection volume 50 μL. […] Compound concentrations were determined using an external calibration curve. Data are expressed as mean ± SEM of the remaining parent compound from three independent experiments.

Sequence of LIMK2 (P53671 whole entry): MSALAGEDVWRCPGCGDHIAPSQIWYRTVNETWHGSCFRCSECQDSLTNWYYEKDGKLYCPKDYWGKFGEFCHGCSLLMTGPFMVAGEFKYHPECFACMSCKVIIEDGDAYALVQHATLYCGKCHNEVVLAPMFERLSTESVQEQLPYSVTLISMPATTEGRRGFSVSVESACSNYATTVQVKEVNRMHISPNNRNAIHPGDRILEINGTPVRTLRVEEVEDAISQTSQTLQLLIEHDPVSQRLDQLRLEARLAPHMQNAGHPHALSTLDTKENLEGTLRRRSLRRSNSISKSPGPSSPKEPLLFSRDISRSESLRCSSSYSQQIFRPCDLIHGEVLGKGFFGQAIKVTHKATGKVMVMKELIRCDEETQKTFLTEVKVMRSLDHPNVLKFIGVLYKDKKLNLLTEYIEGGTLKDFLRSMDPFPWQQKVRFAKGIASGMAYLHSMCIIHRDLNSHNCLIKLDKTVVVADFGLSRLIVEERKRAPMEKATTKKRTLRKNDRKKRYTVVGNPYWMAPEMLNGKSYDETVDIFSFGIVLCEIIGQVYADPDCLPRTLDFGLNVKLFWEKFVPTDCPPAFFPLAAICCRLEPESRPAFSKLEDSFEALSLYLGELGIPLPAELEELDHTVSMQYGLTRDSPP

For `Cc1c(OCc2cn(CCCCC(=O)Nc3ncc(-c4cc(C(F)F)nn4-c4c(Cl)cccc4Cl)s3)nn2)cccc1N1CCC(=O)NC1=O` [22b], the “concentration giving near-complete depletion of endogenous LIMK2” value ([1]; HuCCT1, 6 h, Western blot) was 10 nM, the “LIMK2 degradation (Western blot)” value ([1]; HuCCT1, 6 h treatment) was “strong LIMK2-selective degradation” and the “metabolic stability (in words)” value [2] was “favorable metabolic stability”. The “parent PROTAC remaining” value ([2]; 60 min, 10 μM, HPLC) was 85%.

From publication PMC13184981, “Discovery and Development of a Potent LIMK2 Isoform-Specific Degrader” (ACS Chemical Biology, 2026)
